Data reported in paper PMC3927586, “Protein kinase C-delta inactivation inhibits the proliferation and survival of cancer stem cells in culture and in vivo” (BMC Cancer, 2014).

What was measured:
Type in all cases: cell-based, human
[1] = test system: SBcl2; assay: Tumor spheroid growth, SBcl2 melanoma; conditions: p < 0.001
Procedure: (§1) Tumor self-renewing and anchorage-independent spheroids were obtained by culturing breast cancer cells MCF7, Hs587T and MDA231; melanoma cells SBcl2 and FM6; human breast cancer stem cells and pancreatic cancer stem cells in stem cell-selective conditions according to the manufacturer’s instructions (StemCell Technologies, Tukwila, WA). Briefly, cancer and cancer stem cells were propagated in 6-well ultra-low adherent plates (Corning) in Complete MammoCult Medium (Human) by adding 50 mL of MammoCult Proliferation Supplements to 450 mL of MammoCult Basal Medium (StemCell Technologies). The following were added to obtain Complete MammoCult Medium: 4 ug/mL Heparin (StemCell Technologies), 0.48 μg/mL hydrocortisone (StemCell Technologies), 200 U penicillin/ml; and 200 μg streptomycin/ml (Invitrogen).

[2] = test system: PC3; assay: Tumor spheroid growth, PC3 prostate cancer; conditions: p < 0.001
[3] = test system: PCSC cells; assay: Cell proliferation (MTT) of pancreatic cancer stem cells; conditions: for IC50: Homo sapiens, read-out: IC50 (in culture), growth of PCSC; for IC50 / lowest concentration significantly inhibiting growth of PCSC cultures: 48 hr; for lowest concentration significantly inhibiting growth of PCSC cultures: p ≤ 0.02 vs vehicle
Procedure: Cell proliferation was assessed using an MTT [3-(4,5-dimethylthiazol-2-yl)-2,5-diphenyltetrazolium bromide] assay (Roche, Mannheim, Germany). The number of viable cells growing in a single well on a 96-well microtiter plate was estimated by adding 10 μl of MTT solution (5 mg/ml in phosphate-buffered saline [PBS]). After 4 h of incubation at 37°C, the stain was diluted with 100 μl of dimethyl sulfoxide. The optical densities were quantified at a test wavelength of 570 nm and a reference wavelength of 690 nm on a multiwell spectrophotometer. In some assays, MTS was used as substrate (Promega, Madison, WI), and the absorbance of the product was monitored at 490 nm. Cell enumeration was carried out using a hemocytometer, and viable cells identified by trypan blue exclusion.
Figure 2 Effects of PKCδ inhibitors on human cancer stem cells. (A) PCSC and PrCSC cells at 80% confluence were exposed to rottlerin. DMSO served as vehicle control (Vehicle). After 24 and 72 hr of exposure, cell mass was evaluated by MTT assay. Control values were normalized to 100%. p values for comparison between treatments reached significance at 24 hr of exposure (p≤0.01) for both cell types, and remained significant at 72 hr. (B) PCSC and PrCSC cells at 50% confluence were exposed to rottlerin. Cytotoxicity was evaluated by LDH-release assay. Total maximal LDH release was assigned the arbitrary value of 100% (Control). p values for comparison between effects of treatments on LDH release reached significance at 24 hr of exposure (p<0.01) for both cell types, and remained significant at 72 hr. (C) Effects of PKCδ inhibitor on tumor cell clonogenic capacity. PCSC were exposed to vehicle or rottlerin (10 μM) for 6, 18, 24, or 48 hr. Viable cells were enumerated and re-plated in media without inhibitor, and colony numbers were quantitated 15 days later. p values for comparison of treatment effects on clonogenic capacity reached significance (p=0.005) at 18 hr of exposure and remained significant for all subsequent exposure times. The insert is a photograph of stained colonies on plates. (D) Structures of staurosporine, rottlerin, second-generation (KAM1) and third-generation (BJE6-106) derivatives. (E) PCSC and PrCSC cells at 50% confluence were exposed to KAM1 at the indicated concentrations. DMSO served as vehicle control (Vehicle). Cytotoxicity was evaluated by LDH-release assay, as in panel B. p values for comparison between treatment effects on LDH release reached significance at 24 hr of exposure to 2.5 μM KAM1 for PCSC cells and at 10 μM for PrCSC (p≤0.01), and remained significant at 72 hr for all concentrations of KAM1. Error bars represent SEM.
Figure 3 Effects of a 3rd generation small molecule PKCδ inhibitor on human pancreatic cancer stem cell cultures. PCSC cells were grown to 80% confluence in 96-well plates and then exposed to BJE6-106 at concentrations ranging from 0.1 to 20 μM, or to rottlerin at concentrations ranging from 1 to 20 μM. The corresponding equivalent volume of solvent (DMSO) was used as a vehicle control (Vehicle). After 48 and 72 hr of exposure, cell mass was evaluated by MTT assay. Control values were normalized to 100%. Error bars represent SEM. p values for comparison between vehicle and rottlerin effects on cell number at 48 hr reached significance at 1 μM, and for BJE6-106 at 0.1 μM (p ≤ 0.02), and remained significant at the 72 hr time point.

[4] = test system: MCF 10C cells; assay: Tumor spheroid formation, MCF 10C; conditions: spheroids enumerated at 10 days
Procedure: as §1
Figure 5 Effects of PKCδ inhibitors on growth and spheroid formation in non-transformed and transformed human breast epithelial cells. […] After 24, 48 and 72 hr of exposure, cell mass was evaluated by MTT assay. […] (C) MCF 10A and MCF 10C cells were plated at 10,000 cells per well in tumor spheroid media, and spheroid formation was assessed at days 10 and 21. […]

Structure (SMILES)	inhibition of tumor spheroid growth, SBcl2 ([1]; BJE6-106 at 0.5-1.0 μM) [%]	inhibition of tumor spheroid growth, PC3 ([2]; BJE6-106 at 0.5-1.0 μM) [%]	IC50 ([3]; MTT) [nM]	lowest concentration significantly inhibiting growth of PCSC cultures ([3]; MTT) [µM]	effect on growth of MCF 10C spheroids ([4]; BJE6-106 at 1 μM)	inhibition at 10 µM ([1]; Homo sapiens, SBcl2, rottlerin at 10 μM) [%]	inhibition at 10 µM ([2]; Homo sapiens, PC-3, rottlerin at 10 μM) [%]	growth-inhibitory activity on PCSC at 0.5 μM ([3]; 0.5 μM)	effect on proliferation of PCSC ([3]; MTT, as early as 24 hr after exposure)	effect on growth of MCF 10C spheroids ([4]; rottlerin at 10 μM)
CC1(C)C=Cc2cc(CCn3c4ccccc4c4ccccc43)cc(C=O)c2O1 [BJE6-106, 6-(2-(9H-carbazol-9-yl)ethyl)-2,2-dimethyl-2H-chromene-8-carbaldehyde]	> 99.5	> 96	~500	0.1	efficiently inhibited	–	–	–	–	–
CC(=O)c1c(O)c(C)c(O)c(Cc2c(O)c3c(c(C(=O)/C=C/c4ccccc4)c2O)OC(C)(C)C=C3)c1O [rottlerin, Rottlerin, reference compound]	–	–	~3000	1	–	> 99.5	> 96	no significant inhibitory activity	significant dose-dependent inhibition of proliferation	efficiently inhibited
